Results published in patent US4728650A, “3,4-dihydrobenzopyran derivatives and medicinal uses thereof” (Kuraray Co., Ltd., priority 1985, dated 1988).
Structures can show the parent of a compound that is named as a salt.

Legend:
[1] = Stress ulcer (water immersion stress) in mice; type: in vivo, mice (ddK strain, male)
Description: Male mice of ddK strain (body weights, 18-20 g) were placed in a stress cage in groups of 6 animals and immersed down to the level of the xiphoid process in a water bath at 22±1° C. to give a stress. Five hours later the mice were raised from the water bath and the stomach was removed under ether anesthesia. Into the stomach was infused 1.2 ml of a 10% aqueous solution of formaldehyde and, then, the stomach was immersed in a 10% aqueous solution of formaldehyde for 10 minutes for fixation of the tissue. After fixation, an incision was made along the greater curvature for observing ulcers which had appeared in the glandular portion of the stomach. The degree of ulceration was classified according to the following ulcer index scale and the % inhibition of ulcer was estimated.
2: Hemorrhage and erosion
3: Severe hemorrhage and erosion
Each test compound was orally administered, as suspended in a gum arabic solution in concentration of 5%, to mice 10 minutes before stress loading.

[2] = Pyloric ligation-induced ulcer (Shay ulcer) in rats; type: in vivo, Wistar rats (male); conditions: Table 2, 200 mg/kg i.d.
Description: Male Wistar rats (body weights, 180-200 g) were used in groups of 7 animals. After 48-hour fasting, laparotomy was performed under ether anesthesia and the pylorus was ligated with a suture. After 13 hours, the stomach was isolated under ether anesthesia and gastric juice was collected. The gastric juice was centrifuged at 3,000 r.p.m. for 10 minutes and the volume and pH value of gastric juice were determined. The pH value was determined by using pH paper. After collection of gastric juice, a 10% aqueous solution of formaldehyde was infused into the stomach until the stomach was inflated. Then, the stomach was immersed in a 10% aqueous solution of formaldehyde for 10 minutes for fixation of the tissue. After fixation, an incision was made along the greater curvature for observing ulcers which had developed in the glandular portion of the stomach. The degree of ulcer was classified according to the following ulcer index scale.
2: 1-5 small ulcers (<3 mm in diameter)
3: Six or more small ulcers or one large ulcer (>3 mm in diameter)
4: Two or more large ulcers
Each test compound was administered, as suspended in a gum arabic solution in concentration of 5%, into the duodenum immediately after pyloric ligation.

[3] = Indomethacin-induced ulcer in rats; type: in vivo, Wistar rats (male); conditions: Table 3, 200 mg/kg p.o.
Description: (§1) Male Wistar rats (body weights, 170-210 g) were used in groups of 6 to 8 animals. Indomethacin, 20 mg/kg body weight, was injected subcutaneously to rats which had been deprived of food for 24 hours. After 7 hours, the stomach was excised under ether anesthesia. A 10% aqueous solution of formaldehyde was infused into the stomach until the stomach was inflated and, then, the stomach was immersed in a 10% aqueous solution of formaldehyde for 10 minutes for fixation of the tissue. After fixation, an incision was made along the greater curvature and the length of ulcers occurring in the glandular portion of the stomach was measured. The total length of ulcers occurring in a rat was taken as an ulcer index. Each test compound was orally administered, as suspended in a gum arabic solution in concentration of 5%, to rats 10 minutes before subcutaneous injection of indomethacin. The doses of test compounds and the ulcer indices for treated and untreated rats are shown in Table 3 for purposes of comparison. The % inhibition of ulcer by each test compound as estimated from the ulcer index is also presented in the same table.

[4] = Hydrochloric acid-ethanol-induced ulcer in rats; type: in vivo, Wistar rats (male)
Description: as §1, with “Male Wistar rats (body weights, 160-190 g) were used in groups” for “The doses”, “6 to 8 animals. One milliliter of a 60% aqueous solution of ethanol containing 150 mM hydrochloric acid was administered orally to rats which had been deprived of food for 24 hours. After one hour,” for “test compounds and”, “stomach was excised under ether anesthesia. In a manner similar to that described in study” for “ulcer indices”, “indomethacin-induced ulcer,” for “treated and untreated rats are shown in Table 3 for purposes of comparison. The % inhibition of ulcer by each test compound as estimated from”, “was determined. Each test compound was orally administered, as suspended” for “is also presented”, “a gum arabic solution in concentration of 5%, to rats 1 hour before administration of hydrochloric acid-ethanol.” for “the same table.”

[5] = Expectorant action: tracheal secretion of fluorescein sodium in rats; type: in vivo, Wistar rats (male); conditions: 50 mg/kg oral
Description: Male Wistar rats (body weights, 280-320 g) were used in groups of 7 animals. Each test compound was orally administered in dose of 50 mg/kg body weight to rats. Immediately after administration, 0.3 ml/100 g (body weight of rat) of a 1% aqueous solution of fluorescein sodium was injected into the caudal vein. One hour after administration of the test compound, pentobarbital sodium 100 mg/kg (body weight of rat) was injected intraperitoneally so that deep anesthesia might cause the rat to die. Then, the trachea was exposed and an incision was made in the trachea. A sonde was inserted thereinto and ligation was made. To the sonde was connected a syringe containing 10 ml of a 5% solution of sodium hydrogen carbonate kept at 37° C. and 4 ml of the solution of sodium hydrogen carbonate was injected into the lung. After 5 minutes, the fluid in the lung was removed. After this procedure of injection and removal was repeated three times, the fluid removed from the lung was filtered and the filtrate was made up with water to make 20 ml. The intensity of fluroescence was determined at the excitation wave length of 491 nm and the fluorescence wave length of 510 nm using a spectrophotometer (HITACHI model 650-10, Hitachi, Ltd.). The amount of fluorescein sodium secreted into the trachea was estimated from the intensity of fluorescence. Each test compound was administered as suspended in a gum arabic solution in concentration of 5%.

[6] = Table 16, control 6.455 ± 0.766

SMILES: CN1[C@@H]2CC[C@H]1C[C@@H](OC(=O)C(CO)c1ccccc1)C2 (stereo partly shown) [Atropine sulfate]
- % Inhibition of ulcer ([1]; Table 1, 30 mg/kg p.o.): 80.99%
- Ulcer index (mean ± S.E.) ([1]; Table 1, 30 mg/kg p.o., control 2.63 ± 0.18): 0.50 ± 0.29 mm

SMILES: CNC(=NC#N)NCCSCc1nc[nH]c1C [Cimetidine, N"-cyano-N-methyl-N'-[2-[(5-methyl-1H-imidazol-4-yl)methylthio]ethyl]guanidine, reference compound]
- % Inhibition of ulcer ([1]; mouse, in vivo, po, 200 mg/kg): 49.43%
- Ulcer index (mean ± S.E.) ([1]; mouse, in vivo, po, 200 mg/kg): 1.33 ± 0.21 mm
- pH value of gastric juice ([2]; control 1.77 ± 0.54): 2.29 ± 0.88
- Volume of gastric juice ([2]; control 5.09 ± 0.40): 5.13 ± 0.99 ml/100 g body weight
- Ulcer index (mean ± S.E.) ([2]; scale 0-5, control 3.86 ± 0.40): 1.71 ± 0.18
- % Inhibition of ulcer [3]: 86.97%
- Ulcer index (mean ± S.E.) ([3]; control 10.36 ± 2.07): 1.35 ± 0.48 mm
- inhibition in vivo at 200 mg/kg ([4]; Rattus norvegicus, po, 1 h, Table 7, 200 mg/kg p.o.): 77.9%
- inhibition in vivo at 200 mg/kg ([4]; Rattus norvegicus, po, 1 h, Table 12, 200 mg/kg p.o.): 78%
- Ulcer index (mean ± S.E.) ([4]; Table 4, 200 mg/kg p.o., control 7.36 ± 1.23): 1.63 ± 0.49 mm
- Ulcer index (mean ± S.E.) ([4]; Table 12, 200 mg/kg p.o., control 9.93 ± 0.91): 2.18 ± 1.04 mm

SMILES: COc1c(C)c(C)c2c(c1C)CCC(C)(CCN1CCN(C(=O)CCC=C(C)CCC=C(C)CCC=C(C)C)CC1)O2 (stereo not shown) [Compound (24), 1-[2-(3,4-Dihydro-6-methoxy-2,5,7,8-tetramethyl-2H-benzopyran-2-yl)ethyl]-4-(5,9,13-trimethyl-4,8,12-tetradecatrienoyl)piperazine]
- Secretory amount (mean ± S.E.) ([5]; Table 14, control 1.60 ± 0.18): 2.74 ± 0.22 μg/100 g (body weight of rat)/

SMILES: COc1ccc2c(c1)OC(C)(CCN1CCN(C(=O)c3cc(OC)c(OC)c(OC)c3)CC1)CC2 (stereo not shown) [Compound (25), 1-[2-(3,4-Dihydro-7-methoxy-2-methyl-2H-benzopyran-2-yl)ethyl]-4-(3,4,5-trimethoxybenzoyl)piperazine]
- Secretory amount (mean ± S.E.) ([5]; Table 14, control 1.60 ± 0.18): 3.08 ± 0.19 μg/100 g (body weight of rat)/

SMILES: COc1ccc(C(=O)N2CCN(CCC3(C)CCc4cc(Cl)ccc4O3)CC2)cc1 (stereo not shown) [Compound (26), 1-[2-(6-Chloro-3,4-dihydro-2-methyl-2H-benzopyran-2-yl)ethyl]-4-(4-methoxybenzoyl)piperazine]
- Secretory amount (mean ± S.E.) ([5]; Table 15, control 5.20 ± 0.78): 9.61 ± 0.83 μg/100 g (body weight of rat)/

SMILES: COc1ccc(C(=O)N2CCN(CCCC3(C)CCc4c(C)c(OC)c(C)c(C)c4O3)CC2)cc1 (stereo not shown) [Compound (27), 1-[3-(3,4-Dihydro-6-methoxy-2,5,7,8-tetramethyl-2H-benzopyran-2-yl)propyl]-4-(4-methoxybenzoyl)piperazine]
- Secretory amount (mean ± S.E.) ([5]; Table 15, control 5.20 ± 0.78): 6.45 ± 0.72 μg/100 g (body weight of rat)/

SMILES: COc1ccc(CN2CCN(C(=O)CC3(C)CCc4c(C)c(OC)c(C)c(C)c4O3)CC2)c(OC)c1OC (stereo not shown) [Compound (28), 1-[(3,4-Dihydro-6-methoxy-2,5,7,8-tetramethyl-2H-benzopyran-2-yl)acetyl]-4-(2,3,4-trimethoxybenzyl)piperazine]
- Secretory amount (mean ± S.E.) ([5]; Table 14, control 1.60 ± 0.18): 3.28 ± 0.31 μg/100 g (body weight of rat)/

SMILES: COc1ccc(CN2CCN(C(=O)CC3(C)CCc4cc(Cl)ccc4O3)CC2)c(OC)c1OC (stereo not shown) [Compound (29), 1-[(6-Chloro-3,4-dihydro-2-methyl-2H-benzopyran-2-yl)acetyl]-4-(2,3,4-trimethoxybenzyl)piperazine]
- Secretory amount (mean ± S.E.) ([5]; Table 13, control 5.30 ± 0.40): 5.57 ± 0.36 μg/100 g (body weight of rat)/

SMILES: COc1ccc(CN2CCN(C(=O)C3(C)CCc4c(C)c(OC)c(C)c(C)c4O3)CC2)c(OC)c1OC (stereo not shown) [Compound (30), 1-[(3,4-Dihydro-6-methoxy-2,5,7,8-tetramethyl-2H-benzopyran-2-yl)carbonyl]-4-(2,3,4-trimethoxybenzyl)piperazine]
- Secretory amount (mean ± S.E.) ([5]; Table 13, control 5.30 ± 0.40): 5.45 ± 0.54 μg/100 g (body weight of rat)/

SMILES: COc1ccc(CN2CCN(CCC3(C)CCc4c(C)c(OC)c(C)c(C)c4O3)CC2)c(OC)c1OC (stereo not shown) [Compound (31), 1-[2-(3,4-Dihydro-6-methoxy-2,5,7,8-tetramethyl-2H-benzopyran-2-yl)ethyl]-4-(2,3,4-trimethoxybenzyl)piperazine]
- inhibition in vivo at 50 mg/kg ([4]; Rattus norvegicus, po, 1 h, Table 11, 50 mg/kg p.o.): 100%
- Ulcer index (mean ± S.E.) ([4]; Table 11, 50 mg/kg p.o., control 6.12 ± 1.76): 0.00 ± 0.00 mm
- Secretory amount (mean ± S.E.) [5, 6]: 7.529 ± 0.751 μg/100 g (body weight of rat)/

SMILES: COc1c(C)c(C)c2c(c1C)CCC(C)(CCN1CCN(C(=O)c3ccccc3)CC1)O2 (stereo not shown) [Compound (32), 1-Benzoyl-4-[2-(3,4-dihydro-6-methoxy-2,5,7,8-tetramethyl-2H-benzopyran-2-yl)ethyl]piperazine]
- Secretory amount (mean ± S.E.) ([5]; Table 13, control 5.30 ± 0.40): 5.43 ± 0.72 μg/100 g (body weight of rat)/

SMILES: COc1c(C)c(C)c2c(c1C)CCC(C)(CCN1CCN(CCO)CC1)O2 (stereo not shown) [Compound (35), 1-[2-(3,4-Dihydro-6-methoxy-2,5,7,8-tetramethyl-2H-benzopyran-2-yl)ethyl]-4-(2-hydroxyethyl)piperazine]
- Secretory amount (mean ± S.E.) [5, 6]: 10.297 ± 1.841 μg/100 g (body weight of rat)/
